Tests used:
human recombinant ATX [1] = molecular target: T1, human recombinant ATX (Homo sapiens, UniProt Q13822); experiment: Hydrolysis of cPA analogues by ATX (LC-QqQ); assay type: biochemical; conditions: substrate 10 µM, ATX 50 nM, 37 °C, time-dependent
T1 construct: purchased Cayman Chemical
Procedure: Analyses of LPA from cPA, 2carbaLPA from 2ccPA, and 3carbaLPA from 3ccPA were performed using LC-QqQ as per methods described previously. cPA 18:1, or 2ccPA 18:1 and 3ccPA 18:1 mixture as substrate (10 μM each) were incubated at 37 °C for 2 h with human recombinant ATX (final concentration: 50 nM) and subjected to LC-QqQ. 2carbaLPA and 3carba LPA were both detected in the negative ion mode with selected reaction monitoring (SRM) of the transition from m/z 433.27 to m/z 151.02. To separate α-LPA and the predicted β-LPA or 2carbaLPA and 3carbaLPA, LC method was performed as per previously described protocols with some modifications. Briefly, the UHPLC PEEK Inertsil ODS-3 C18 column (3 µm, 2.1 × 150 mm; GL Sciences, Tokyo, Japan) was used and the compounds were eluted with a gradient solvent system: solvent A (5 mM ammonium formate in water containing 0.0096% formic acid, pH 4.0), solvent B (5 mM ammonium formate in 95% acetonitrile/5% water containing 1.16% formic acid, pH 4.0). The analytical procedure commenced with solvent B 55% for 10 min, followed by a linear gradient 85% for 40 min that was maintained at 85% for 15 min. […] The flow rate was 0.2 mL/min at a column temperature of 40 ℃. The injection volume was 10 µL/sample.
Supplementary Figure S4. Lysophosphatidic acid (LPA) produced from cyclic phosphatidic acid (cPA), 2-carba-lysophosphatidic acid (2carbaLPA) produced from 2-carba-cyclic phosphatidic acid (2ccPA) and 3-carba-lysophosphatidic acid (3carbaLPA) produced from 3-carba-cyclic phosphatidic acid (3ccPA) by autotaxin (ATX). (a) cPA 16:0, (b) 2ccPA or (c) 3ccPA (final concentration: 10 µM each) was incubated with or without human recombinant ATX (50 nM final concentration) at 37°C. The amount of produced (a) LPA 16:0, (b) 2carbaLPA or (c) 3carbaLPA was detected using liquid chromatography with tandem mass spectrometry (LC-QqQ) and presented as peak area (counts). Data are represented as mean ± standard deviation of experiments conducted in duplicate. […]

human recombinant ATX [2] = molecular target: T1, human recombinant ATX; experiment: LC-QqQ assay of LPC cleavage by ATX (LPA 16:0 production); assay type: biochemical; conditions: for ATX inhibitory activity (LPA 16:0 production, LC-QqQ): 10 µM, LPC 16:0 300 µM, ATX 50 nM, 2 h, 37 °C; for Inhibition of the lysoPLD activity of ATX: stated in Conclusions, assay and concentration not given
Procedure: Figure 5 Inhibition of lysophospholipase D activity of autotaxin (ATX) by cyclic phosphatidic acid (cPA) analogues. (a) Concentration–response curves for the inhibition of ATX activity as measured by the […] of the substrate lysophosphatidylcholine (LPC) using choline oxidase and peroxidase. LPC 16:0 (final concentration: 300 µM, above its critical micellar concentration [CMC]), human recombinant ATX (final concentration: 50 nM), and various concentrations of cPA analogues were used for incubation with 4-aminoantipyrine, TOOS (final concentration: 0.05% (w/v) each), choline oxidase and peroxidase (final concentration: 10 U/mL each) in the ATX assay buffer. The absorbance at a wavelength of 555 nm was measured at 0 and 2 h incubation at 37 °C. Inhibition was calculated as percentage (%) of reduction in absorbance compared with absorbance in the vehicle control (without cPA analogues) after subtraction of the value measured at time 0. Data are represented as mean ± standard deviation (n = 3–4 samples). (b) Inhibition of ATX activity measured by lysophosphatidic acid (LPA 16:0) production via liquid chromatography coupled to triple quadrupole mass spectrometry (LC-QqQ). The substrate LPC 16:0 (final concentration: 300 µM) was incubated with human recombinant ATX (final concentration: 50 nM) and cPA analogues (final concentration: 10 μM) for 2 h at 37 °C. The ATX product, LPA 16:0, was quantified by LC-QqQ. Inhibition was calculated as percentage (%) of reduction in LPA production compared with LPA production in the vehicle control (without cPA analogues). Data are represented as mean ± standard deviation (n = 5–6 samples). TEXT PRINTED IN THE PICTURE: (b) LPA: ATX Inhibition, %: ND
ATX (4 µL, final concentration: 50 nM) and cPA analogues (4 µL, final concentration: 10 µM) were added to a 200-µL siliconized microcentrifuge tube and mixed with 32 µL of LPC 16:0 (final concentration: 300 µM) in ATX assay buffer. After incubation at 37 °C for 2 h, 160 µL of acidic methanol was added to stop enzymatic reaction. Sample solutions were filtered, and the LPA 16:0 production was analysed using LC-QqQ as per methods described previously. Inhibition was calculated as a percentage (%) of reduction in LPA production compared to LPA production in the vehicle control (without cPA analogues).

| Hydrolysis by ATX (human recombinant ATX [1]) | ATX inhibitory activity (LPA 16:0 production, LC-QqQ) (human recombinant ATX [2]) | Inhibition of the lysoPLD activity of ATX (human recombinant ATX [2]) [%] | SMILES |
| --- | --- | --- | --- |
| 2ccPA to 2carbaLPA |  |  | CCCCCCCC/C=C\CCCCCCCC(=O)OCC1COP(=O)(O)C1 (centres unmarked) [2ccPA 18:1, 2-carba-cyclic phosphatidic acid] |
| hydrolysed to 3carbaLPA by ATX | weak | 30 | CCCCCCCC/C=C\CCCCCCCC(=O)OC[C@@H]1CCP(=O)(O)O1 [3ccPA 18:1, 3-carba-cyclic phosphatidic acid] |
| hydrolyses cPA to LPA | poor ATX inhibitor | 10 | CCCCCCCC/C=C\CCCCCCCC(=O)OC[C@@H]1COP(=O)(O)O1 [cPA 18:1, 1-Oleoyl-cPA] |

| SMILES | Hydrolysis by ATX (human recombinant ATX [1]) | ATX inhibitory activity (LPA 16:0 production, LC-QqQ) (human recombinant ATX [2]) | Inhibition of the lysoPLD activity of ATX (human recombinant ATX [2]) [%] |
| --- | --- | --- | --- |
| CCCCCCCC/C=C\CCCCCCCC(=O)OC[C@@H](O)CCP(=O)(O)O [3carba LPA 18:1, 3-carba-lysophosphatidic acid] |  | significantly stronger than that of 3ccPA |  |

Reference: PMC8405639, “2-Carba-lysophosphatidic acid is a novel β-lysophosphatidic acid analogue with high potential for lysophosphatidic acid receptor activation and autotaxin inhibition” (Scientific Reports, 2021)
